Where “and” joins values, the source holds several entries; their conditions need not be identical. Equal entries are not always repeated.
Tested on: Parkinson's disease symptoms in PD patients with LID
Experiment: Unified Parkinson's Disease Rating Scale (UPDRS)
Settings: for UPDRS Part 1, mean change from baseline / UPDRS Total (Parts 1 to 4), mean change from baseline / UPDRS Part 3, mean change from baseline / UPDRS Part 2, mean change from baseline / UPDRS Part 4, mean change from baseline: per-protocol set
[1] = Full analysis set, Visit 9 Follow-up Clinic Visit
[2] = Visit 2 Baseline, per protocol analysis set, N = 15
[3] = Visit 6 Clinic Efficacy Visit (Day 28), per protocol analysis set, N = 15
[4] = Visit 7 Clinic Efficacy Visit (Day 42), per protocol analysis set, N = 15
[5] = Visit 9 Follow-up Clinic Visit, per protocol analysis set, N = 15
[6] = individual patients A-E co-treated with amantadine
[7] = per-protocol set (n = 15), Baseline
[8] = Δ D 28 (end of up-titration), p < 0.05 vs baseline
[9] = Δ D 42 (end of stable dosing), p < 0.01 vs baseline

Procedure: Patients were rated for dyskinesia at baseline and on days 28 (at end of up-titration period) and 42 (end of stable dosing period). Because the level of dyskinesia experienced by patients can vary over time, they were given 150% (i.e., 1.5×) of their regular L-DOPA dose (up to a maximum of 250 mg) as a challenge 30 min before each dyskinesia assessment to improve comparability between patients and between visits. Patients were filmed 30, 60 and 90 min after dosing with L-DOPA (˜5 min of filming each time). LID was assessed using the Unified Dyskinesia Rating Scale (UDysRS). Changes from baseline are shown for total score (i.e., Parts 1 to 4), for total objective score (i.e., Parts 3+4), and for the sum of Part 3 objective impairment assessment scores. Because objective LID assessment was carried out at 3 time-points (30, 60 and 90 min) following L-DOPA challenge, the above parameters were analyzed based on the most severe of the three scores as well as on the average score of the 3 time points. PD symptoms were assessed by Unified Parkinson's Disease Rating Scale (UPDRS) 30-90 min after the 150% L-DOPA challenge (i.e., when the patient was ON). Changes from baseline are shown for total score (i.e., Parts 1 to 4) and individual scores for each Part, 1, 2, 3 and 4.
The UPDRS consists of 4 parts: • v. Part I assesses non-motor experiences of daily living, such as cognitive impairment and depressed mood. • w. Part II assesses motor experiences of daily living, such as speech and eating tasks. • x. Part III is a motor examination conducted by the clinician, including assessments of symptoms such as rigidity and tremor. • y. Part IV is an assessment of motor complications, such as time spent with dyskinesia and functional impact of dyskinesias.
Each item in the UPDRS is scored from 0 to 4, and the individual scores are summed to give a total score that indicates the severity of the disease, with a score of 0 indicating no disability and a score of 199 being the most severe (indicating total disability).
Change from baseline in UPDRS combined scores (Parts I, II, III and IV) to Visit 6 (Day 28) and Visit 7 (Day 42) respectively would be summarized using descriptive statistics. […] The same analysis would be done for UPDRS Part III only.
The baseline value of the dependent variable has been included in the model as a continuous covariate. Kenward-Roger's improved approximation for degrees of freedom (2009) has been used; ^b)=p-value for the difference between NLX-112 at the assessment timepoint and at baseline; ^c)=p-value for the difference between placebo at the assessment timepoint and at baseline; ^d)=p-value for the difference between NLX-112 and placebo absolute change from baseline at the assessment timepoint.

## Cc1ccc(CNCC2(F)CCN(C(=O)c3ccc(F)c(Cl)c3)CC2)nc1 [NLX-112, (3-chloro-4-fluoro-phenyl)-[4-fluoro-4-{[(5-methyl-pyridin-2-ylmethyl)-amino]-methyl}piperidin-1-yl]methanone]
[1]
  UPDRS Part 3 Motor Total, collected value, median: 13.0
  UPDRS Part 3 Motor Total, relative change from baseline (%), mean: −11.2%
  UPDRS Part 3 Motor Total, relative change from baseline (%), median: −14.3%
  UPDRS Total Score (all Parts), absolute change from baseline, Mean: −4.4
  UPDRS Total Score (all Parts), absolute change from baseline, Median: −3.0
  UPDRS Total Score (all Parts), collected value, Mean: 32.6
  UPDRS Total Score (all Parts), collected value, Median: 31.0
  UPDRS Total Score (all Parts), relative change from baseline (%), Mean: −9.57%
  UPDRS Total Score (all Parts), relative change from baseline (%), Median: −11.5%
[2]
  UPDRS Part 3 Motor Total, collected value, mean: 17.5
  UPDRS Part 3 Motor Total, collected value, median: 17.0
  UPDRS Total Score, collected value, mean: 37.0
  UPDRS Total Score, collected value, median: 36.0
[3]
  UPDRS Part 3 Motor Total, absolute change from baseline, mean: −3.7
  UPDRS Part 3 Motor Total, absolute change from baseline, median: −4.0
  UPDRS Part 3 Motor Total, collected value, mean: 13.9
  UPDRS Part 3 Motor Total, collected value, median: 14.0
  UPDRS Part 3 Motor Total, relative change from baseline (%), mean: −21.8%
  UPDRS Part 3 Motor Total, relative change from baseline (%), median: −21.4%
  UPDRS Total Score, absolute change from baseline, mean: −6.5
  UPDRS Total Score, absolute change from baseline, median: −5.0
  UPDRS Total Score, collected value, mean: 30.5
  UPDRS Total Score, collected value, median: 29.0
  UPDRS Total Score, relative change from baseline (%), mean: −17.4%
  UPDRS Total Score, relative change from baseline (%), median: −15.2%
[4]
  UPDRS Part 3 Motor Total, absolute change from baseline, mean: −3.7
  UPDRS Part 3 Motor Total, absolute change from baseline, median: −4.0
  UPDRS Part 3 Motor Total, collected value, mean: 13.9
  UPDRS Part 3 Motor Total, collected value, median: 14.0
  UPDRS Part 3 Motor Total, relative change from baseline (%), mean: −21.5%
  UPDRS Part 3 Motor Total, relative change from baseline (%), median: −33.3%
  UPDRS Total Score, absolute change from baseline, mean: −5.7
  UPDRS Total Score, absolute change from baseline, median: −5.0
  UPDRS Total Score, collected value, mean: 31.3
  UPDRS Total Score, collected value, median: 30.0
  UPDRS Total Score, relative change from baseline (%), mean: −15.7%
  UPDRS Total Score, relative change from baseline (%), median: −19.2%
[5]
  UPDRS Part 3 Motor Total, absolute change from baseline, mean: −2.7
  UPDRS Part 3 Motor Total, absolute change from baseline, median: −2.0
  UPDRS Part 3 Motor Total, collected value, mean: 14.8
  UPDRS Part 3 Motor Total, collected value, median: 13.0
  UPDRS Part 3 Motor Total, relative change from baseline (%), mean: −11.2%
  UPDRS Part 3 Motor Total, relative change from baseline (%), median: −14.3%
  UPDRS Total Score, absolute change from baseline, mean: −4.4
  UPDRS Total Score, absolute change from baseline, median: −3.0
  UPDRS Total Score, collected value, mean: 32.6
  UPDRS Total Score, collected value, median: 31.0
  UPDRS Total Score, relative change from baseline (%), mean: −9.57%
  UPDRS Total Score, relative change from baseline (%), median: −11.5%
Day 42
  reduction in UPDRS Part 3 score, more than placebo: 3.9 points
Days 28 and 42
  UPDRS Part 1 (non-motor experiences of daily living), vs baseline: no statistically significant changes from baseline
  UPDRS Part IV (motor complications), vs baseline: significant reduction
[6]
  UPDRS Part 3, Δ from baseline: −9 and −13 and +3 and +2 and −4
  UPDRS Total, Δ from baseline: −15 and −11 and −5 (2×) and +3
Of the 5 patients
  patients on NLX-112 and amantadine with numerical reductions in PD symptoms (UPDRS): 4
[7]
  UPDRS Part 1, mean: 1.0
  UPDRS Part 2, mean: 10.7
  UPDRS Part 3, mean: 17.5
  UPDRS Part 4, mean: 8.0
  UPDRS Total (Parts 1 to 4), mean: 37.0
Δ D 28 (end of up-titration)
  UPDRS Part 1, mean change from baseline: 0.2
Δ D 28 (end of up-titration), p < 0.001 vs baseline
  UPDRS Total (Parts 1 to 4), mean change from baseline: −6.5
Δ D 28 (end of up-titration), p < 0.01 vs baseline, p < 0.05 vs placebo
  UPDRS Part 3, mean change from baseline: −3.7
[8]
  UPDRS Part 2, mean change from baseline: −2.1
  UPDRS Part 4, mean change from baseline: −0.9
Δ D 42 (end of stable dosing)
  UPDRS Part 1, mean change from baseline: 0.1
  UPDRS Part 2, mean change from baseline: −1.2
[9]
  UPDRS Part 3, mean change from baseline: −3.7
  UPDRS Total (Parts 1 to 4), mean change from baseline: −5.7
Δ D 42 (end of stable dosing), p < 0.05 vs baseline
  UPDRS Part 4, mean change from baseline: −0.9

— patent US20250295648A1 (priority 2024, published 2025)
